Data published in ChEMBL document CHEMBL1201862, “PubChem BioAssay data set” (2004).
Each block holds one molecule with its values, some of them ahead of it. Active and inactive are the calls of the source.

Columns and labels:
[1] = biological target: 26S proteasome non-ATPase regulatory subunit 14 (Homo sapiens, UniProt O00487); assay: inhibition of proteasome subunit RPN11 – biochemical, fluorescence polarization, uHTS hits, confirmation (AID 602368); assay type: functional
[2] = biological target: 72 kDa type IV collagenase (Homo sapiens, UniProt P08253); assay: Dose Response validation of uHTS RPN11 inhibitor hits using a MMP-2 Fluorescence assay.; assay type: functional
Prothrombin = Prothrombin (Bos taurus, UniProt P00735); assay: thrombin protease inhibitors – biochemical, fluorescence polarization, uHTS hits, dose response (AID 602369); assay type: functional
[3] = inhibition of ARNT PAS-B/TACC3 complex formation – biochemical, AlphaScreen, cherry-picked samples, confirmation (AID 651703); assay type: functional, Homo sapiens;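 also: His-tagged ARNT PAS-B domain paired with GST-TACC3 E629A dimer coactivator fragment; potency of inhibitors that break up the complex and lower AlphaScreen signal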
Steroidogenic factor 1 = Steroidogenic factor 1 (Homo sapiens, UniProt Q13285); assay: Counterscreen for inverse agonists of the liver receptor homolog-1 (LRH-1; NR5A2): Luminescence-based cell-based high throughput dose response assay to identify inverse agonists of the Steroidogenic Factor 1 Nuclear Receptor (SF1; NR5A1).; assay type: functional
[4] = nonselective StAR promoter luciferase inhibitors – cell-based, luminescence, luciferase reporter, counter-screen for LRH-1 inverse agonist project, dose response (AID 651969); assay type: functional
[5] = biological target: Nuclear receptor subfamily 5 group A member 2 (Homo sapiens, UniProt O00482); assay type: functional, cell-based;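 also: HEK293T cells transfected with LRH-1 and a StAR promoter luciferase reporter; potency for inhibitors that lower LRH-1 driven reporter light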
Beta-galactosidase = Beta-galactosidase (Escherichia coli, UniProt Q8VNN2); assay: PubChem AID 485352; assay type: functional
[6] = biological target: T1, Type-1 angiotensin II receptor (Homo sapiens, UniProt P30556); assay: antagonism of angiotensin II type 1 receptor – cell-based, uHTS hits, selectivity assay for APJ receptor antagonist project, dose response (AID 463214); assay type: functional;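 also: antagonist potency against angiotensin II stimulated AT1 response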
T1 sequence (P30556 whole entry): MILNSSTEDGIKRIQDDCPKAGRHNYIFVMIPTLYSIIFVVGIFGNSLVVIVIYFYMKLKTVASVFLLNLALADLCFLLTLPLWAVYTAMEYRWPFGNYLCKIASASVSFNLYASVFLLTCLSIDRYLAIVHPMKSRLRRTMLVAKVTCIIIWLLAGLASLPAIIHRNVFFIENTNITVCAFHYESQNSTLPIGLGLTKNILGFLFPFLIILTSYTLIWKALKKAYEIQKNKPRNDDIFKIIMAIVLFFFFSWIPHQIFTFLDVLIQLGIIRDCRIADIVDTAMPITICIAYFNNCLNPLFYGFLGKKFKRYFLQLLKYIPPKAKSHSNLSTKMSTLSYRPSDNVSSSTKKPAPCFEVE

[7] = biological target: Heat shock protein HSP 90-alpha (Homo sapiens, UniProt P07900); assay type: functional, organism-based
[8] = biological target: Dual specificity tyrosine-phosphorylation-regulated kinase 1A (Rattus norvegicus, UniProt Q63470); assay type: biochemical, Homo sapiens
HeLa = assay: ATP-based viability loss in HeLa cells – cell-based, CellTiter-Glo luminescence, cherry-pick samples, cytotoxicity control for MITF activator project, dose response (AID 540259); assay type: functional; details: Homo sapiens
Caspase-3 = biological target: T2, Caspase-3 (Homo sapiens, UniProt P42574); assay type: functional;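 also: Dose-response selectivity test against caspase-3 for candidate inhibitors of sentrin-specific proteases (SENPs)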
T2 sequence (P42574 whole entry): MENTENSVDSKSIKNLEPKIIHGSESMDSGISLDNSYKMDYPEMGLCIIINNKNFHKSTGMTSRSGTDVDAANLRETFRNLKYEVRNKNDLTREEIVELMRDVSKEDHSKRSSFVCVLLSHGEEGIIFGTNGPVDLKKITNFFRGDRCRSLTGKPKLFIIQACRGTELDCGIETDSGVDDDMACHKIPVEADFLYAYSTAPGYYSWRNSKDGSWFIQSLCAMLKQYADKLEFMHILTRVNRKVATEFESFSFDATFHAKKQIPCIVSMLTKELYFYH

[9] = biological target: T3, Sentrin-specific protease 7 (Homo sapiens, UniProt Q9BQF6); assay type: functional;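 also: Luminescence-based dose-response confirmation of ultra-high-throughput screening hits, measuring inhibition of SENP7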
T3 sequence (Q9BQF6 whole entry): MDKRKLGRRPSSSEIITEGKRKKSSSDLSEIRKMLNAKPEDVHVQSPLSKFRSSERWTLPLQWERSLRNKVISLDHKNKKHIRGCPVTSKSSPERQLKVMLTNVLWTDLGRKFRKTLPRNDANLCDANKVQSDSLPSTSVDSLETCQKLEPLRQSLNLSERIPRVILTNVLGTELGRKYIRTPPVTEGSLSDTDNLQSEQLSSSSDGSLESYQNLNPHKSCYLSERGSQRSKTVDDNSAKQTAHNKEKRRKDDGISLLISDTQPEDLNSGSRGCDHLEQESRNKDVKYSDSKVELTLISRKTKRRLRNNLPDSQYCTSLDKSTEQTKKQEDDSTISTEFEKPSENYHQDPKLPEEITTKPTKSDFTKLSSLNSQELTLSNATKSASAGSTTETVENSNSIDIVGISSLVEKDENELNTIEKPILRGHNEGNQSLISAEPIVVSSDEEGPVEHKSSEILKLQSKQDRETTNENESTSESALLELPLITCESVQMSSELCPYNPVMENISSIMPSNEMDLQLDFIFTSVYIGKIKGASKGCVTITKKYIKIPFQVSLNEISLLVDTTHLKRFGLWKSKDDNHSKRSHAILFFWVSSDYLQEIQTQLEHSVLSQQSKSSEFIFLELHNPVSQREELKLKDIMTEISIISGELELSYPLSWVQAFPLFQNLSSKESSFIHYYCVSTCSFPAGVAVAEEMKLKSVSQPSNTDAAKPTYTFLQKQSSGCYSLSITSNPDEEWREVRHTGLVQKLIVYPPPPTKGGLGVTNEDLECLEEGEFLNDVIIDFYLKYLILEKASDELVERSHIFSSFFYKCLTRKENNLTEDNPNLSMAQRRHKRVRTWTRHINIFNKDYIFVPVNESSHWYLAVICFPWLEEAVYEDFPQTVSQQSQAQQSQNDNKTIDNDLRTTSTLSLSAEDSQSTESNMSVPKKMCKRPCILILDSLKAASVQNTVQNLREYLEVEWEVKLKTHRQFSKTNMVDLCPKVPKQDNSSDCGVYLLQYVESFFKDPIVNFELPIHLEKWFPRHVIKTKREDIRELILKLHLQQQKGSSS

[10] = biological target: T4, Sentrin-specific protease 6 (Homo sapiens, UniProt Q9GZR1); assay type: functional;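 also: Luminescence-based dose-response confirmatory assay of SENP6 inhibition, following up an ultra-high-throughput screen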
T4 sequence (Q9GZR1 whole entry): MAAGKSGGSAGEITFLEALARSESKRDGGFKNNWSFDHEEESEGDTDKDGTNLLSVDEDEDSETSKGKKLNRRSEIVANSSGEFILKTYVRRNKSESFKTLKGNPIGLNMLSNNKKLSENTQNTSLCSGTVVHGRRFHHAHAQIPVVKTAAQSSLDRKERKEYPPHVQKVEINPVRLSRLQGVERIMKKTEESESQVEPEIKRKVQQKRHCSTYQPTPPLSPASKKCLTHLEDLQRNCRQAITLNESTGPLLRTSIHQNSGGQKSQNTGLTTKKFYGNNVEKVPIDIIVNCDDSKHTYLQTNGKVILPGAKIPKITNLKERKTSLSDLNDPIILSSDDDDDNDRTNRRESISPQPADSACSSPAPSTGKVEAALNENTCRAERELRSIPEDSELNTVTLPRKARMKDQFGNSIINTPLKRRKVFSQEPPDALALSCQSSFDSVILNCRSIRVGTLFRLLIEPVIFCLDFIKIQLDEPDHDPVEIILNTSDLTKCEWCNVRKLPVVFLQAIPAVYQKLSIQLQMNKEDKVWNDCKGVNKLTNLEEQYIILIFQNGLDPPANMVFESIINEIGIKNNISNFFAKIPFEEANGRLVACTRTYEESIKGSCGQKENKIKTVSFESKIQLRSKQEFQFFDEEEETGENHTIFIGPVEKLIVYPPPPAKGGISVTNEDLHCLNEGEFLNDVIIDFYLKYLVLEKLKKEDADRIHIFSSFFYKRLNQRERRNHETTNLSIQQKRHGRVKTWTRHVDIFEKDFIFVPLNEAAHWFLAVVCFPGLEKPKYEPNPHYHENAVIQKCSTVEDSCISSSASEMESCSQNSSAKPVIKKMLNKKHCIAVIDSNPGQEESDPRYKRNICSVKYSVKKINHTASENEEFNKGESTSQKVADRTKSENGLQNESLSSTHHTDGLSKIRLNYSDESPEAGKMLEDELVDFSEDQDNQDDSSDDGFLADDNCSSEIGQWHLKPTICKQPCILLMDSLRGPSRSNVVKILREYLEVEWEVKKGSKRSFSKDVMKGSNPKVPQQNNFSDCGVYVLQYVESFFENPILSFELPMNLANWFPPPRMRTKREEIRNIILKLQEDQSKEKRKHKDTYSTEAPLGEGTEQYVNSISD

[11] = biological target: T5, Sentrin-specific protease 8 (Homo sapiens, UniProt Q96LD8); assay type: functional;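 also: luminescence read-out of SENP8 inhibition, dose-response confirmation following an ultra-high-throughput screen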
T5 sequence (Q96LD8 whole entry): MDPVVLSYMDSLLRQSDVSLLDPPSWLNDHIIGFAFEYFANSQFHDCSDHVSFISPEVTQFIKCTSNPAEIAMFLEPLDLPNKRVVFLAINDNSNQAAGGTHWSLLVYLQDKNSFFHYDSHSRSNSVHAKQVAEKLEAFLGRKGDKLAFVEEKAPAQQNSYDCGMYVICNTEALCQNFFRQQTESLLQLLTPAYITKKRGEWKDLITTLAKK

[12] = biological target: T6, Probable nicotinate-nucleotide adenylyltransferase (Staphylococcus aureus (strain N315), UniProt P65502); assay type: functional, Staphylococcus aureus subsp. aureus N315;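 as to IC50 Mean: confirmatory dose-response retesting of NadD inhibitor hits first found in an ultra-high-throughput screen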
[13] = biological target: T6, Probable nicotinate-nucleotide adenylyltransferase; assay type: functional, Staphylococcus aureus subsp. aureus N315; details: read-out: IC50_Mean
[14] = tested on: Streptococcus sp. 'group A'; assay: Streptococcus pyogenes SK(-)GAS viability under kanamycin – luminescence, BacTiterGlo, confirmation, counter-screen for streptokinase expression inhibitor project, dose response (AID 1900); assay type: functional, organism-based
Streptococcus = assay: GAS UMAA2166 growth inhibition – luminescence, BacTiterGlo, counter-screen for streptokinase expression inhibitor project, dose response (AID 1915); assay type: functional, organism-based;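 also: potency for reduction of bacterial viability or growth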

Chain of Nuclear receptor subfamily 5 group A member 2 (O00482 whole entry): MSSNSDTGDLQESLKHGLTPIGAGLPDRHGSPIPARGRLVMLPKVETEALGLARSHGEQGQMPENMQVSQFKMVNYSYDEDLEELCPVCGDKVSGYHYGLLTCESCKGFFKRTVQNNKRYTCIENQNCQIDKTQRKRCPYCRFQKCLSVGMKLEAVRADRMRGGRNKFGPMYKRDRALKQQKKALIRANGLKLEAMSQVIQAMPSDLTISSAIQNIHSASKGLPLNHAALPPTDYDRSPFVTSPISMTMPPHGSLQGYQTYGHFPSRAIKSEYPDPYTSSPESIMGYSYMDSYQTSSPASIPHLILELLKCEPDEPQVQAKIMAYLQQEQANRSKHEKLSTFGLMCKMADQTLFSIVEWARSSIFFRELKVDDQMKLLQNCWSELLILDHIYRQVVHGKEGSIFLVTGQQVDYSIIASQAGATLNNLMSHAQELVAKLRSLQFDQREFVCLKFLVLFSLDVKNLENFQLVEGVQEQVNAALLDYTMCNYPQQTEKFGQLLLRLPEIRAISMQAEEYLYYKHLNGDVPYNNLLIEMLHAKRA
Chain of Steroidogenic factor 1 (Q13285 whole entry): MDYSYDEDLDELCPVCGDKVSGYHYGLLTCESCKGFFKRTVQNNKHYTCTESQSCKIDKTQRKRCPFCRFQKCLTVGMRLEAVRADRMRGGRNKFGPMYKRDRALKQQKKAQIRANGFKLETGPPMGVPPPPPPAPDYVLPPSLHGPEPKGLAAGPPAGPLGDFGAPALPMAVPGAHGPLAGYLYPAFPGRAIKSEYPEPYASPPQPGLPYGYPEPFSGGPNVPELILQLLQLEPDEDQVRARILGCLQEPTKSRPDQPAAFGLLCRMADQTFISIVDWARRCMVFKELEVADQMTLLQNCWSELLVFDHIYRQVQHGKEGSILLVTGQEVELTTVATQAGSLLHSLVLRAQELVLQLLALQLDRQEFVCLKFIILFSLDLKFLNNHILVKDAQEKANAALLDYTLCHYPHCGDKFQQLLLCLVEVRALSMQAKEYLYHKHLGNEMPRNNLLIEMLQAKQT
Chain of Beta-galactosidase (Q8VNN2 whole entry): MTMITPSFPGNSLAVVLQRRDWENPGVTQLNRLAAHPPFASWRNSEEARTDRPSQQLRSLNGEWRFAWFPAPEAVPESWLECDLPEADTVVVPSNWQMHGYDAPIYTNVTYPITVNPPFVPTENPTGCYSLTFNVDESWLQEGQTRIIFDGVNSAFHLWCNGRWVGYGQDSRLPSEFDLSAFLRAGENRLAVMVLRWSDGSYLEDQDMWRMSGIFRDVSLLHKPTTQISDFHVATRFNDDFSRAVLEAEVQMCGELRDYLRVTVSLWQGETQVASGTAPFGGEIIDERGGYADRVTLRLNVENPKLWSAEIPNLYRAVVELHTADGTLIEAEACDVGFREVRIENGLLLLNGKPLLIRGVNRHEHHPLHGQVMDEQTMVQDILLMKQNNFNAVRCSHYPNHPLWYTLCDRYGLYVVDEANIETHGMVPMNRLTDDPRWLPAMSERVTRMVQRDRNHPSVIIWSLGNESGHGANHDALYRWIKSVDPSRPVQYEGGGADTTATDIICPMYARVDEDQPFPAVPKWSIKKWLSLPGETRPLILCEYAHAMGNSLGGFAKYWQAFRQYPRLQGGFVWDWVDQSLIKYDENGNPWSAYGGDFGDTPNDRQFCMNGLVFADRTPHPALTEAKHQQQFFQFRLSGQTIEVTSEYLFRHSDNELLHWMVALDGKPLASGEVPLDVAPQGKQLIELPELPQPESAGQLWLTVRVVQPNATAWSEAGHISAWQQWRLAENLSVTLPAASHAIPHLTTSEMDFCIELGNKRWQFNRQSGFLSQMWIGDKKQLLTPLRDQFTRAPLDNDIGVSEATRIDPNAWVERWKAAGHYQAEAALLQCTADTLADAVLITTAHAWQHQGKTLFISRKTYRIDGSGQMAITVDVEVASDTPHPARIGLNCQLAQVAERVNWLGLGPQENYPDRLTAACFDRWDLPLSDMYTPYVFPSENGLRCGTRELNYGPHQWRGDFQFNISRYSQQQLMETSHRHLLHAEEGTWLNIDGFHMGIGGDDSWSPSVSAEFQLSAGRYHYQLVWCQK
Chain of 26S proteasome non-ATPase regulatory subunit 14 (O00487 whole entry): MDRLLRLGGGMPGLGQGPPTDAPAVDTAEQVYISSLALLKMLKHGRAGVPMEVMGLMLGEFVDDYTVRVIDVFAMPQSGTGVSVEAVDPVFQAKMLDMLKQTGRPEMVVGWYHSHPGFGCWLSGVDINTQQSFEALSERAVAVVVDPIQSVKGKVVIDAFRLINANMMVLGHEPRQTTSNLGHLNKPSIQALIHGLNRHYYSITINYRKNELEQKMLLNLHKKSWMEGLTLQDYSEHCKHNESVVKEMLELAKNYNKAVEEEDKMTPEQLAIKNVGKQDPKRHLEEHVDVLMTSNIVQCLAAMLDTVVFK
Chain of 72 kDa type IV collagenase (P08253 whole entry): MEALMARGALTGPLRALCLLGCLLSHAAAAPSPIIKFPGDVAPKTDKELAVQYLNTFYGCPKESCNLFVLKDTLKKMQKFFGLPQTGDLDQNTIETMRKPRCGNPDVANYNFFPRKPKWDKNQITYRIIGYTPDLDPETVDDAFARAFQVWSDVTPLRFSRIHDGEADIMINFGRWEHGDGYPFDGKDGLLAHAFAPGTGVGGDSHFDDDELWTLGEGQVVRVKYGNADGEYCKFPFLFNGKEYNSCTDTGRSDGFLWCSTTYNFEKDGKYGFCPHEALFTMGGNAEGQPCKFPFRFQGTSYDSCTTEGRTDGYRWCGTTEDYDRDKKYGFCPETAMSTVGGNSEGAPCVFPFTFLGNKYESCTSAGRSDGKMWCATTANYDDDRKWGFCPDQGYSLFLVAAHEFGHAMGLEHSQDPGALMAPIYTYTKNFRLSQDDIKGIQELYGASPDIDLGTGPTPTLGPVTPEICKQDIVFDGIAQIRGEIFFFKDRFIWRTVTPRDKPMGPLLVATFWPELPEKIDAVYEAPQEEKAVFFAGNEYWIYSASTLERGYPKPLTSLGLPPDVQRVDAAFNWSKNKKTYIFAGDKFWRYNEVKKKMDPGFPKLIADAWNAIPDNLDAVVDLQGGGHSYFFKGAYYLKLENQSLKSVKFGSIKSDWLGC

SMILES: O=C(N[C@H]1CC[C@H](CCn2cc(-c3ccccn3)nn2)O[C@H]1CO)c1ccccc1
AC50 [3]: 78.4 µM (active)

SMILES: CCCc1nnc(SCC(=O)Nc2ccc(C(=O)OCC)cc2)o1
IC50 (Steroidogenic factor 1): 1.61 µM (active)
IC50 [4]: 35.9 µM (inactive)
IC50 [5]: 35.9 µM (inactive)

SMILES: Fc1ccc(NC(S)=Nc2ccc(Cl)cc2Cl)cc1
EC50 (Beta-galactosidase): > 40 µM (inactive)
IC50 [6]: > 40 µM (not active)

SMILES: O=C(CCCNC(=O)c1ccc(Cl)cc1)OCc1cccc(Br)c1
AC50 [7]: 5.23 µM (active)

SMILES: NC(=O)c1ccccc1NCC(=O)c1ccc(F)cc1
EC50 (Beta-galactosidase): > 40 µM (inactive)
IC50 [6]: 21.6 µM (not active)

SMILES: CC1=C(C(=O)c2ccccc2)C(c2ccc(N3CCOCC3)cc2)NC(=O)N1 (stereo not drawn)
IC50 [1]: 17.1 µM (active)
IC50 [2]: > 100 µM (inactive)
IC50 (Prothrombin): 15.5 µM (active)

SMILES: Clc1ccc(COn2nnc3ccccc32)c(Cl)c1
AC50 (HeLa): 77.9 µM (active)
IC50 (Caspase-3): 24.1 µM (active)
IC50 [9]: 8.88 µM (active)
IC50 [10]: 31.2 µM (active)
IC50 [11]: 35.3 µM (active)

SMILES: N#CCSc1ccccc1NC(=O)CN1C(=O)C2CC=CCC2C1=O (stereo not drawn)
IC50 (Steroidogenic factor 1): 2.83 µM (active)
IC50 [4]: 35.9 µM (inactive)
IC50 [5]: 6.85 µM (active)

SMILES: Oc1cccc2ccc(/C=C/c3cccs3)nc12
EC50 [14]: 1.92 µM (active)
EC50 (Beta-galactosidase): > 40 µM (inactive)
IC50 [6]: 10.3 µM (active)
EC50 (Streptococcus): 4.2 µM (active)

SMILES: N=C(N)NC(=O)c1nc(Cl)c(N)nc1N
AC50 [8]: 9.17 µM (active)

SMILES: CCc1ccccc1NC(=O)CSc1nnc([C@@H]2CCCN2C(=O)OC(C)(C)C)o1
IC50 (Steroidogenic factor 1): 1.86 µM (active)
IC50 [4]: 35.9 µM (inactive)
IC50 [5]: 12 µM (inactive)

The next lines start with the values.

IC50 [1]: 33.9 µM (active)
IC50 [2]: > 100 µM (inactive)
IC50 (Prothrombin): 35.5 µM (active)
SMILES: CC(=O)c1cccc(NC(=O)CCc2nc3sc4c(c3c(=O)[nH]2)CCCC4)c1

AC50 [8]: 2.73 µM (active)
SMILES: COc1ccc(/C=C2\SC(=S)N(C(C)C(=O)NC3C=CS(=O)(=O)C3)C2=O)cc1 (stereo not drawn)

IC50 [1]: 13.1 µM (active)
IC50 [2]: > 100 µM (inactive)
IC50 (Prothrombin): > 100 µM (inactive)
SMILES: CCOc1ccc(CCNC(=O)c2nnn(CC(=O)Nc3ccc(C)cc3)c2N)cc1OCC

IC50 [12]: 8.52 µM (active)
IC50 [13]: 26.7 µM (active)
SMILES: Cc1ccc(Nc2nnc(SCC(O)=C(C#N)c3nc4ccccc4[nH]3)s2)c(C)c1

EC50 (Beta-galactosidase): > 40 µM (inactive)
IC50 [6]: > 40 µM (not active)
SMILES: C=CCn1c(=O)/c(=C2/Sc3cc(OC)ccc3N2C)s/c1=C1\C(=O)N(CC)C(=S)N1C

IC50 [1]: 27 µM (active)
IC50 [2]: > 100 µM (inactive)
IC50 (Prothrombin): 27.3 µM (active)
SMILES: COc1ccc(NN=C2C(=O)CC(C)(C)CC2=O)c(OC)c1

AC50 [7]: 3.92 µM (active)
SMILES: Cc1cc(Cl)ccc1C(=O)C1CCCN(C(=O)c2cncs2)C1 (stereo not drawn)
